The results in this text go back to patent publication US4335249A, “Herbicidal diphenyl ethers, sulfides, sulfoxides and sulfones” (Rohm and Haas Company, priority 1976, dated 1982).

What all share (format): in vivo
In experiment [1] the test system is tomato (Lycopersicon esculentum). In words: Preemergence herbicidal activity, tomato. As to conditions: Solanum lycopersicum, pre-emergence, 336 h; Pre, 2 lb/A. The method, then: (§1) Using the procedure described below, compounds of the invention are evaluated for control of several of the following plant species:
(§2) The following est procedure is employed. Seeds of selected crops and weeds are planted in soil in flats. For preemergence tests, the flats are treated with the test compound immediately after the planting. For postemergence tests, the seeds are allowed to germinate, and after two weeks the flats are treated with the test compound. The compound to be evaluated is dissolved in acetone, diluted with water, and sprayed over the flats using a carrier volume equivalent to 50 gallons per acre at the rate of application (pounds per acre, lb/A.) specified in the tables. About two weeks after the application of the test compound, the state of growth of the plants is observed and the phytotoxic effect of the compound is evaluated. Tables III and IV give the average percent control achieved by test compounds in terms of the percent of the plants which are killed by the compounds.

In experiment [2] the test system is wild oats (Avena fatua). In words: Postemergence herbicidal activity, wild oats. As to conditions: Post, 2 lb/A; for pest or weed control at 2241.7 g/ha: Avena fatua, post-emergence, 336 h, read-out: % control, Wild oat. The method, then:
as §1, §2

Experiment [3] has as its system tomato (Lycopersicon esculentum). Briefly: Postemergence herbicidal activity, tomato. The following applies: Post, 2 lb/A; for pest or weed control at 2241.7 g/ha: Solanum lycopersicum, post-emergence, 336 h. The protocol:
as §1, §2

The subject of experiment [4] is cocklebur (Xanthium pensylvanicum). In words: Preemergence herbicidal activity, cocklebur. The following applies: Xanthium strumarium, pre-emergence, 336 h, 2 lb/A. The method, then: as §1, §2
In experiment [5] the test system is velvetleaf (Abutilon theophrasti). Briefly: Postemergence herbicidal activity, velvetleaf. The following applies: 2 lb/A; for pest or weed control at 2241.7 g/ha: Abutilon theophrasti, post-emergence, 336 h. The method, then: as §1
(§3) The following est procedure is employed. Seeds of selected crops and weeds are planted in soil in flats. For preemergence tests, the flats are treated with the test compound immediately after the planting. For postemergence tests, the seeds are allowed to germinate, and after two weeks the flats are treated with the test compound. The compound to be evaluated is dissolved in acetone, diluted with water, and sprayed over the flats using a carrier volume equivalent to 50 gallons per acre at the rate of application (pounds per acre, lb/A.) specified in the tables.

For experiment [6], the system named is foxtail (Setaria spp.). Briefly: Postemergence herbicidal activity, foxtail. The following applies: Setaria, post-emergence, 336 h, Post, 2 lb/A. The protocol: as §1, §2
Experiment [7] concerns marigold (Tagetes spp.). In words: Preemergence herbicidal activity, marigold. As to conditions: pre-emergence, 336 h, 2 lb/A. The protocol: as §1, §2
Experiment [8] deals with cocklebur (Xanthium pensylvanicum). In words: Postemergence herbicidal activity, cocklebur. As to conditions: 2 lb/A; for pest or weed control at 2241.7 g/ha: Xanthium strumarium, post-emergence, 336 h. The method, then: as §1, §2
Experiment [9] relates to yellow nutsedge (Cyperus esculentus). Briefly: Preemergence herbicidal activity, yellow nutsedge. The following applies: Cyperus, pre-emergence, 336 h, 2 lb/A. The method, then:
as §1, §2

Experiment [10] relates to velvetleaf (Abutilon theophrasti). In words: Preemergence herbicidal activity, velvetleaf. As to conditions: Abutilon theophrasti, pre-emergence, 336 h; Pre, 2 lb/A. The protocol:
as §1, §2

The test system of experiment [11] is wild oats (Avena fatua). Briefly: Preemergence herbicidal activity, wild oats. The following applies: Pre, 2 lb/A; for pest or weed control at 2241.7 g/ha: Avena fatua, pre-emergence, 336 h, read-out: % control, Wild oat. The method, then: as §1, §2
For experiment [12], the system named is marigold (Tagetes spp.). In words: Postemergence herbicidal activity, marigold. As to conditions: 2 lb/A; for pest or weed control at 2241.7 g/ha: post-emergence, 336 h. The protocol: as §1, §2
Experiment [13] has as its system downybrome (Bromus tectorum). In words: Postemergence herbicidal activity, downybrome. The following applies: Post, 2 lb/A; for pest or weed control at 2241.7 g/ha: Bromus tectorum, post-emergence, 336 h. The protocol: as §1, §2
Experiment [14] relates to downybrome (Bromus tectorum). In words: Preemergence herbicidal activity, downybrome. As to conditions: Pre, 2 lb/A; for pest or weed control at 2241.7 g/ha: Bromus tectorum, pre-emergence, 336 h. The method, then: as §1, §2
Experiment [15] has as its system morningglory (Ipomoca spp.). Briefly: Preemergence herbicidal activity, morningglory. The following applies: 2 lb/A; for pest or weed control at 2241.7 g/ha: Ipomoea, pre-emergence, 336 h. The protocol: as §1, §2
Experiment [16] deals with barnyardgrass (Echinochloa crusgalli). Briefly: Preemergence herbicidal activity, barnyardgrass. The following applies: Echinochloa crus-galli, pre-emergence, 336 h; Pre, 2 lb/A. The protocol:
as §1, §3

Experiment [17] relates to yellow nutsedge (Cyperus esculentus). Briefly: Postemergence herbicidal activity, yellow nutsedge. The following applies: Cyperus, post-emergence, 336 h, 2 lb/A. The protocol: as §1, §2
Experiment [18] relates to barnyardgrass (Echinochloa crusgalli). In words: Postemergence herbicidal activity, barnyardgrass. The following applies: Echinochloa crus-galli, post-emergence, 336 h; Post, 2 lb/A. The method, then: as §1, §3
Experiment [19] has as its system foxtail (Setaria spp.). In words: Preemergence herbicidal activity, foxtail. As to conditions: Setaria, pre-emergence, 336 h; Pre, 2 lb/A. The protocol:
as §1, §2

Experiment [20] concerns morningglory (Ipomoca spp.). Briefly: Postemergence herbicidal activity, morningglory. As to conditions: 2 lb/A; for pest or weed control at 2241.7 g/ha: Ipomoea, post-emergence, 336 h. The protocol:
as §1, §2

Each structure is given as a SMILES string.

As for `CCOC(=O)C(C)Oc1cccc(Oc2ccc(C(F)(F)F)cc2Cl)c1` (stereo not drawn) [Example 2], the pest or weed control at 2241.7 g/ha turned out to be 100% in experiment [1]; 50% in experiment [2]; 100% in experiment [3]; 0% in experiment [4]; 100% in experiment [5]; 50% in [6]. The pest or weed control at 2241.7 g/ha amounted to 90% in [7]; 90% in [8]; 0% in experiment [9]; 100% in experiment [10]; 20% in experiment [11]; 90% in [12]. The pest or weed control at 2241.7 g/ha in experiment [13] is 40%; in [14], 0%; in experiment [15] it was 0%; in experiment [16], 30%; in experiment [17], 0%; in [18] it was 60%. In addition, the pest or weed control at 2241.7 g/ha in experiment [19] and in experiment [20] was 100% in each case.

Turning to `CCOC(=O)C(C)Oc1ccc(Sc2ccc(C(F)(F)F)cc2Cl)cc1` (stereo not drawn) [Example 3, Ethyl 2-[4-(2-Chloro-4-trifluoromethylphenylthio)phenoxy] propionate], the pest or weed control at 2241.7 g/ha in experiment [1] worked out at 0%; in experiment [2], 99%; in experiment [3], 70%; in experiment [4], 0%; in experiment [5], 70%; in experiment [6], 100%. Besides, the pest or weed control at 2241.7 g/ha in [7] turned out to be 0%; in experiment [8] it was 20%; in [9] it was 0%; in experiment [10], 0%; in experiment [11], 30%; in experiment [12], 50%. Besides, the pest or weed control at 2241.7 g/ha was found to be 90% in [13]; 40% in [14]; 0% in experiment [15]; 95% in experiment [16]; 66% in experiment [17]; 70% in [18]. For the same molecule, the values for the pest or weed control at 2241.7 g/ha in experiment [19] and in experiment [20] were 100% and 50%, respectively.

`COC(=O)C(C)Oc1ccc(Oc2ccc(C(F)(F)F)cc2Cl)cc1` (stereo not drawn) [Example 4, Methyl 2-[4-(2-chloro-4-trifluoromethylphenoxy)phenoxy] propionate]: the pest or weed control at 2241.7 g/ha in experiment [1] amounted to 0%; in [2], 100%; in experiment [3], 60%; in experiment [4] it was 0%; in experiment [5] it was 80%; in experiment [6], 100%. Also, the pest or weed control at 2241.7 g/ha in experiment [7] was found to be 0%; in experiment [8], 100%; in experiment [9], 0%; in [10] it was 20%; in experiment [11], 40%; in [12], 30%. Further, the pest or weed control at 2241.7 g/ha in experiment [13] worked out at 99%; in experiment [14] it was 0%; in experiment [15], 0%; in experiment [16], 100%; in experiment [17], 0%; in [18] it was 100%. Besides, the pest or weed control at 2241.7 g/ha in [19] amounted to 100%; in [20] it was 20%.

`CCN(CC)C(=O)C(C)Oc1ccc(Oc2ccc(C(F)(F)F)cc2Cl)cc1` (stereo not drawn) [Example 5]: the pest or weed control at 2241.7 g/ha in experiment [1] amounted to 0%; in experiment [2] it was 20%; in experiment [3], 80%; in experiment [4], 0%; in [5], 20%; in [6] it was 90%. Moreover, the pest or weed control at 2241.7 g/ha in experiment [7], in experiment [8], in [9], in [10], in experiment [11] and in experiment [12] was 0% throughout. Moreover, the pest or weed control at 2241.7 g/ha is 30% in experiment [13]; 0% in [14]; 0% in [15]; 60% in experiment [16]; 0% in [17]; 20% in [18]. Further, the pest or weed control at 2241.7 g/ha in experiment [19] was found to be 99%; in experiment [20], 20%.

Regarding `CC(Oc1ccc(Oc2ccc(C(F)(F)F)cc2Cl)cc1)C(=O)O` (stereo not drawn) [Example 6, 2-[4-(2-Chloro-4-trifluoromethylphenoxy)phenoxy] propionic acid], the pest or weed control at 2241.7 g/ha is 0% in [1]; 0% in experiment [4]; 95% in [6]; 0% in experiment [7]; 0% in experiment [9]; 0% in [10]. The pest or weed control at 2241.7 g/ha in [16] came out at 100%; in experiment [17], 0%; in [18] it was 100%; in experiment [19] it was 100%. In addition, the “% control, Wild oat” value in [2] was 95%; in [11] it was 20%. Further, the “% control, Tomato” value in experiment [3] stood at 80%. Besides, in experiment [5] (Post), the “% control, Velvetleaf” value stood at 20%. Moreover, the “% control, Cocklebur” value in [8] (Post) was found to be 50%. The “% control, Marigold” value in experiment [12] (Post) turned out to be 20%. For the same molecule, the “% control, Downybrome” value in [13] turned out to be 30%; in [14], 40%. The “% control, Morningglory” value was 0% in experiment [15] (Pre) and 40% in experiment [20] (Post).

Consider `CCOC(=O)C(C)Oc1ccc(Oc2ccc(C(F)(F)F)cc2Cl)cc1Cl` (stereo not drawn) [Example 7], for which the pest or weed control at 2241.7 g/ha was 0% in experiment [1]; 20% in [2]; 80% in experiment [3]; 0% in [4]; 80% in experiment [5]; 40% in experiment [6]. The pest or weed control at 2241.7 g/ha in experiment [7] worked out at 0%; in experiment [8], 80%; in experiment [9] it was 0%; in experiment [10], 0%; in [11] it was 0%; in experiment [12] it was 20%. Further, the pest or weed control at 2241.7 g/ha was 0% in experiment [13]; 0% in experiment [14]; 0% in experiment [15]; 0% in experiment [16]; 0% in experiment [17]; 10% in experiment [18]. The pest or weed control at 2241.7 g/ha came to 90% in [19] and 100% in experiment [20].
